According to US20190062272A1, “SMALL MOLECULES FOR IMMUNOGENIC TREATMENT OF CANCER” (Capten Therapeutics Inc., priority 2017, published 2019):

Legend:
Assay type in all cases: cell-based
[1] = system: CT26 Colon Cancer; test: Cytotoxicity assay (Cell Titer GLO, 72 hours), CT26; conditions: Mus musculus, CT26 Colon Cancer cells, cell viability by Cell Titer GLO, read-out: GC50 (the source's name)
Procedure: (§1) Cell lines used: CT26, B16F10 and NIH3T3
(§2) Concentration range of drug to be tested: 50 nM to 50 uM
(§3) Cells were plated in a 96 well plate and when they are about 50% confluent the drug was added in DMSO so that the final concentration of DMSO is 0.1% (v/v) of less and incubated for 72 hours. The cell viability is then determined using Cell Titer GLO.

[2] = system: B16F10 Melanoma; test: Cytotoxicity assay (Cell Titer GLO, 72 hours), B16F10; conditions: Mus musculus, B16-F10, B16F10 Melanoma cells, cell viability by Cell Titer GLO, read-out: GC50 (the source's name)
Procedure: as §1, §2, §3

[3] = system: NIH 3T3 Non-tumor; test: Cytotoxicity assay (Cell Titer GLO, 72 hours), NIH3T3; conditions: Mus musculus, NIH 3T3 Non-tumor cells, cell viability by Cell Titer GLO, read-out: GC50 (the source's name)
Procedure: as §1, §2, §3

Row | SMILES | IC50 [1] | IC50 [2] | IC50 [3]
1 | C=CC(=O)NCCSc1cc(O)ccc1O [Compound 12, N-[2-(2,5-dihydroxyphenyl)sulfanylethyl]propenamide] | 14.2 µM | > 50 µM | 3.3 µM
2 | C=CC(=O)NCCSc1cccc(O)c1O [Compound 14, N-[2-(2,3-dihydroxyphenyl)sulfanylethyl]propenamide] | 9.9 µM | 4.7 µM | > 50 µM
3 | C=CC(=O)NCCSc1ccc(O)c(O)c1 [Compound 10, N-[2-(3,4-dihydroxyphenyl)sulfanylethyl]propenamide] | > 50 µM | > 50 µM | > 50 µM
